From patent US20250222011A1, “DRUG TARGET FOR INHIBITING TUMOR, USE, AND ORAL DRUG” (CHI BIOTECH CO., LTD., priority 2024, published 2025)

Assays:
nascent peptides = test: Detection of nascent peptides (puromycin labelling, Western blotting); type: cell-based; settings: 1 mg/mL, FIG. 6
Procedure: Detection of nascent peptides: the cells were plated in a 6-well plate, with 200,000 cells in each well. After 24 h of adhesion, ATCA was added to make a working solution at a concentration of 1 mg/mL, while the control group was replaced with new medium. The experimental and control groups were treated for 2 h, 6 h, 12 h, 24 h, and 48 h separately, […], and cycloheximide was added to the positive control group for 10 min of treatment 25 min before sample collection. 10 μg/μL puromycin-labeled nascent peptide was added to all wells for 15 min, the medium was aspirated, the cells were washed twice with PBS, added with IP & WB lysis buffer to allow lysis on ice for 30 min, and centrifuged at 12,000 g for 20 min at 4° C. A resulting supernatant was transferred to a new centrifuge tube, 10 μg of protein was added to 5×SDS Loading Buffer, denatured in a 100° C. water bath for 10 min, and quantitatively detected by Western blotting. Western Blotting: the sample and molecular standard of pre-stained protein were loaded onto an SDS-PAGE gel (10 cm×10 cm) to allow electrophoresis at 100 V for 40 min. The proteins in SDS-PAGE were transferred to nitrocellulose membrane at 100 V, 230 mA within 1 h. After transfer, the nitrocellulose membrane was washed with 25 mL of TBS for 5 min at room temperature. […]

H1299 cells = test: Transcriptome sequencing with KEGG pathway enrichment of down-regulated genes; type: cell-based, human; settings: 1 mg/mL ATCA, 48 h, FIG. 7
Procedure: 1 mg/mL ATCA was added to the culture medium of a T75 cell culture flask filled with three million of H1299 cells as a treatment group, and an equal volume of PBS was added as a control group. After ATCA treatment for 48 h, the cultured supernatant was discarded, and the cells were placed on ice, washed twice with pre-cooled PBS. The PBS was discarded, 5 mL of pre-cooled Trizol (total RNA extraction reagent) was added, mixed by shaking thoroughly. […]

cancer cells = test: LDH assay of cytotoxicity; type: cell-based; settings: 0.5 mg/mL
Source text: (§1) In addition, an LDH assay was adopted to determine the cytotoxicity of ATCA and detect the cytotoxicity of the drug.

normal cells (HBE) = test: LDH assay of cytotoxicity; type: cell-based; settings: 0.5 mg/mL
Source text: as §1

normal lung cells HBE = test: Apoptosis by Annexin V and propidium iodide staining, flow cytometry; type: cell-based; settings: 0.5 mg/mL ATCA
ovarian cancer cells = test: Apoptosis of ovarian cancer cells (other experiments); type: cell-based
liver cancer cells = test: Proliferation of liver cancer cells (other experiments); type: cell-based

O=C(O)C1=CC(=C(c2ccc(O)c(C(=O)O)c2)c2ccc(O)c(C(=O)O)c2)C=CC1=O [ATCA, aurintricarboxylic acid]
protein synthesis (nascent peptides) (nascent peptides; 2 h to 12 h after adding the drug): had not been significantly blocked
number of new peptide chains compared with that without the drug (nascent peptides; 24 h to 48 h after adding the drug): significantly reduced
further significantly down-regulated pathways (KEGG enrichment) (H1299 cells): platinum drug-resistance, TGF-beta signaling pathway, signaling pathways regulating pluripotency of stem cells, and FoxO signaling pathway
most significantly down-regulated pathway (KEGG enrichment) (H1299 cells): cell cycle
cytotoxicity to cancer cells (LDH) (cancer cells): did not cause obvious cytotoxicity
cytotoxicity to normal cells (LDH) (normal cells (HBE)): did not cause obvious cytotoxicity
apoptosis of normal lung cells HBE (normal lung cells HBE): did not show apoptosis
apoptosis of ovarian cancer cells (ovarian cancer cells): induce apoptosis
proliferation of liver cancer cells (liver cancer cells): inhibit the proliferation
